Experiments:
[1] = xn = mol fraction of the nth substance listed; conditions: Wilhelmy plate method
[2] = refractive index (Na D-line) (dimensionless); xn = mol fraction of the nth substance listed; conditions: 100.5 kPa, Liquid, Standard Abbe refractometry

CCOC(=O)c1ccccc1O [ethyl 2-hydroxybenzoate] + CCO
Conditions	refractive index, 288.15 K	refractive index, 298.18 K	refractive index, 308.15 K	refractive index, 318.15 K	surface tension liquid-gas, 288.15 K [mN/m]	surface tension liquid-gas, 298.18 K [mN/m]	surface tension liquid-gas, 308.15 K [mN/m]	surface tension liquid-gas, 318.15 K [mN/m]
[1], x1 = 0.05	–	–	–	–	24	23.17	22.27	21.3
[1], x1 = 0.1	–	–	–	–	24.8	23.9	22.94	21.97
[1], x1 = 0.15	–	–	–	–	25.5	24.55	23.55	22.57
[1], x1 = 0.2	–	–	–	–	26.1	25.14	24.13	23.17
[1], x1 = 0.25	–	–	–	–	26.65	25.65	24.67	23.7
[1], x1 = 0.3	–	–	–	–	27.2	26.15	25.17	24.2
[1], x1 = 0.35	–	–	–	–	27.7	26.65	25.62	24.67
[1], x1 = 0.4	–	–	–	–	28.1	27.1	26.08	25.17
[1], x1 = 0.45	–	–	–	–	28.6	27.55	26.58	25.7
[1], x1 = 0.5	–	–	–	–	29.13	28.1	27.12	26.25
[1], x1 = 0.55	–	–	–	–	29.71	28.66	27.68	26.8
[1], x1 = 0.6	–	–	–	–	30.33	29.25	28.26	27.38
[1], x1 = 0.65	–	–	–	–	31	29.9	28.9	28
[1], x1 = 0.7	–	–	–	–	31.7	30.6	29.56	28.67
[1], x1 = 0.75	–	–	–	–	32.5	31.38	30.3	29.4
[1], x1 = 0.8	–	–	–	–	33.4	32.25	31.13	30.2
[1], x1 = 0.85	–	–	–	–	34.4	33.18	32.03	31.1
[1], x1 = 0.9	–	–	–	–	35.4	34.18	33.03	32.18
[1], x1 = 0.95	–	–	–	–	36.4	35.17	34.07	33.2
[1], x1 = 1	–	–	–	–	37.5	36.3	35.2	34.4
[2], x1 = 0.05	1.38326	1.37908	1.37478	1.37068	–	–	–	–
[2], x1 = 0.1	1.40028	1.39599	1.39159	1.38739	–	–	–	–
[2], x1 = 0.15	1.41504	1.41072	1.40628	1.40202	–	–	–	–
[2], x1 = 0.2	1.42788	1.42347	1.41902	1.4147	–	–	–	–
[2], x1 = 0.25	1.43914	1.43468	1.4302	1.4258	–	–	–	–
[2], x1 = 0.3	1.44918	1.44465	1.44012	1.43567	–	–	–	–
[2], x1 = 0.35	1.4582	1.45364	1.44908	1.44456	–	–	–	–
[2], x1 = 0.4	1.46635	1.46177	1.45719	1.45266	–	–	–	–
[2], x1 = 0.45	1.47375	1.46918	1.46462	1.46008	–	–	–	–
[2], x1 = 0.5	1.48051	1.47593	1.47139	1.46685	–	–	–	–
[2], x1 = 0.55	1.4867	1.48212	1.4776	1.47306	–	–	–	–
[2], x1 = 0.6	1.49239	1.48782	1.48328	1.47873	–	–	–	–
[2], x1 = 0.65	1.49763	1.49304	1.48852	1.48397	–	–	–	–
[2], x1 = 0.7	1.50246	1.49784	1.49331	1.48874	–	–	–	–
[2], x1 = 0.75	1.50695	1.50232	1.49779	1.49321	–	–	–	–
[2], x1 = 0.8	1.51112	1.50649	1.50196	1.49738	–	–	–	–
[2], x1 = 0.85	1.51498	1.51035	1.50582	1.50123	–	–	–	–
[2], x1 = 0.9	1.51852	1.51391	1.50938	1.50479	–	–	–	–
[2], x1 = 0.95	1.52184	1.51723	1.51272	1.50814	–	–	–	–
[2], x1 = 1	1.52481	1.52022	1.51573	1.51116	–	–	–	–

— the NIST ThermoML archive (doi:10.1021/je060139a)
